Common to all, as to type: functional
For experiment [1], the system named is NCI-H460. Nature of the experiment: Cytotoxicity against human NCI-H460 cells assessed as growth inhibition at 0.1 ug/ml after 24 hrs by MTT assay. The following applies: NCI-H460, 24 h, read-out: GI. (In general: Formazan colour is commonly taken as a measure of viable cells.)
Experiment [2] in a line: Cytotoxicity against human HO8910 cells assessed as growth inhibition at 100 ug/ml after 24 hrs by MTT assay. The settings on record: HO-8910, 24 h, read-out: GI.
The nature of experiment [3]: Cytotoxicity against human HO8910 cells assessed as growth inhibition at 1 ug/ml after 24 hrs by MTT assay. The following applies: HO-8910, 24 h, read-out: GI.
Experiment [4] has as its system KB. The experiment in a line: Cytotoxicity against human KB cells assessed as growth inhibition at 100 ug/ml after 24 hrs by MTT assay. The following applies: read-out: GI.
The test system of experiment [5] is KB. Nature of the experiment: Cytotoxicity against human KB cells assessed as growth inhibition at 0.1 ug/ml after 24 hrs by MTT assay. The following applies: read-out: GI.
Experiment [6] concerns Bel-7402. The experiment in a line: Cytotoxicity against human Bel7402 cells assessed as growth inhibition at 100 ug/ml after 24 hrs by MTT assay. The following applies: Bel-7402, 24 h, read-out: GI.
Experiment [7] relates to Bel-7402. Nature of the experiment: Cytotoxicity against human Bel7402 cells assessed as growth inhibition at 1 ug/ml after 24 hrs by MTT assay. The following applies: Bel-7402, 24 h, read-out: GI.
Experiment [8] concerns Bel-7402. The experiment in a line: Cytotoxicity against human Bel7402 cells assessed as growth inhibition at 0.1 ug/ml after 24 hrs by MTT assay. The following applies: Bel-7402, 24 h, read-out: GI.
Experiment [9] concerns PC-3. Nature of the experiment: Cytotoxicity against human PC3 cells assessed as growth inhibition at 100 ug/ml after 24 hrs by MTT assay. The following applies: PC-3, 24 h, read-out: GI.
Experiment [10] deals with PC-3. Nature of the experiment: Cytotoxicity against human PC3 cells assessed as growth inhibition at 10 ug/ml after 24 hrs by MTT assay. The settings on record: for inhibition of growth at 10 µg/mL: PC-3, 24 h, read-out: GI.
The subject of experiment [11] is PC-3. The experiment in a line: Cytotoxicity against human PC3 cells assessed as growth inhibition at 1 ug/ml after 24 hrs by MTT assay. The following applies: for inhibition of growth at 1 µg/mL: PC-3, 24 h, read-out: GI.
The subject of experiment [12] is PC-3. The experiment in a line: Cytotoxicity against human PC3 cells assessed as growth inhibition at 0.1 ug/ml after 24 hrs by MTT assay. The settings on record: for inhibition of growth at 0.1 µg/mL: PC-3, 24 h, read-out: GI.
Experiment [13] relates to NCI-H460. Nature of the experiment: Cytotoxicity against human NCI-H460 cells assessed as growth inhibition at 100 ug/ml after 24 hrs by MTT assay. The settings on record: NCI-H460, 24 h, read-out: GI.
Experiment [14] relates to NCI-H460. Nature of the experiment: Cytotoxicity against human NCI-H460 cells assessed as growth inhibition at 10 ug/ml after 24 hrs by MTT assay. The following applies: NCI-H460, 24 h, read-out: GI.
The test system of experiment [15] is NCI-H460. Nature of the experiment: Cytotoxicity against human NCI-H460 cells assessed as growth inhibition at 1 ug/ml after 24 hrs by MTT assay. The following applies: NCI-H460, 24 h, read-out: GI.
The nature of experiment [16]: Cytotoxicity against human HO8910 cells assessed as growth inhibition at 0.1 ug/ml after 24 hrs by MTT assay. The settings on record: HO-8910, 24 h, read-out: GI.
For experiment [17], the system named is KB. Nature of the experiment: Cytotoxicity against human KB cells assessed as growth inhibition at 10 ug/ml after 24 hrs by MTT assay. The following applies: read-out: GI.
The test system of experiment [18] is KB. Nature of the experiment: Cytotoxicity against human KB cells assessed as growth inhibition at 1 ug/ml after 24 hrs by MTT assay. The following applies: read-out: GI.
The test system of experiment [19] is Bel-7402. Nature of the experiment: Cytotoxicity against human Bel7402 cells assessed as growth inhibition at 10 ug/ml after 24 hrs by MTT assay. The settings on record: Bel-7402, 24 h, read-out: GI.

Active and inactive are the calls of the source. The calls are words filed in the database; no cut-off is given here.

For `O=C(CCCCC1CCSS1)Nc1ccc([N+](=O)[O-])c(C(F)(F)F)c1` (configuration not stated), the inhibition of growth at 0.1 µg/mL in experiment [1] was 18.8%; in experiment [5] it was 4.5%; in experiment [8] it was 5.04%; in experiment [12], 5.37%. Besides, the inhibition of growth at 100 µg/mL was found to be 47.6% in experiment [2]; 49.5% in [4]; 23.9% in experiment [6]; 90.2% in [9]; 51.6% in experiment [13]. For the same compound, the inhibition of growth at 1 µg/mL in experiment [3] is 0.96%; in experiment [7] it was 7.46%; in experiment [15], 19.1%. Besides, the “growth inhibition (GI)” value in [10] and in experiment [11] was “inactive” in each case. Besides, in experiment [14], the inhibition of growth at 10 µg/mL was determined as 12%.

As to `O=C(CCCC[C@H]1CCSS1)Nc1ccc([N+](=O)[O-])c(C(F)(F)F)c1`, the inhibition of growth at 100 µg/mL is 92.3% in [2]; 95.8% in experiment [4]; 94% in [6]; 79.8% in experiment [9]; 92.2% in [13]. In [16], the inhibition of growth at 0.1 µg/mL was determined as 1.06%. Further, the “growth inhibition (GI)” value in [10], in experiment [11] and in experiment [12] was “inactive” each time.

In the case of `O=C(O)CCCCC(CCSC(=O)c1ccccc1)SC(=O)c1ccccc1` (configuration not stated), the inhibition of growth at 100 µg/mL was 86.7% in experiment [2]; 89.8% in experiment [4]; 81% in experiment [6]; 91.2% in experiment [9]; 72.8% in experiment [13]. The inhibition of growth at 1 µg/mL in [3] is 0.29%; in experiment [18], 0.68%; in experiment [11] it was 9.86%; in experiment [15], 0.77%. In addition, the inhibition of growth at 10 µg/mL came out at 2.68% in [17], 2.76% in experiment [19] and 7.43% in [10]. The results for the inhibition of growth at 0.1 µg/mL in [8] and in [12] were 1.09% and 9.54%, respectively.

Consider `O=C(CCCC[C@@H]1CCSS1)Nc1ccc([N+](=O)[O-])c(C(F)(F)F)c1`, for which the inhibition of growth at 100 µg/mL stood at 39.2% in experiment [2]; 49.1% in experiment [4]; 43.4% in [6]; 59% in experiment [9]; 35.4% in [13]. In addition, the “growth inhibition (GI)” value in [10], in [11] and in [12] was “inactive” in each case.

Consider `O=C(CCCCC1CCSS1)Nc1cccc(Cl)c1` (configuration not stated), for which the inhibition of growth at 0.1 µg/mL in [1] turned out to be 6.08%; in experiment [5], 2.85%; in [8] it was 0.33%; in [12] it was 17.1%. Besides, the inhibition of growth at 100 µg/mL in [2] was 68.3%; in experiment [4], 76.5%; in [6] it was 68.2%; in [9], 79.5%; in experiment [13] it was 65.2%. Also, the inhibition of growth at 10 µg/mL in experiment [17] came to 7.88%; in experiment [19], 4.15%; in [10], 13.8%; in [14], 10.1%. The inhibition of growth at 1 µg/mL is 1.11% in experiment [7], 8.44% in experiment [11] and 8.85% in experiment [15].
